In brackets after ≈: the same amount, converted by molar mass. Where a SMILES comes first, the peptide text is derived from it. [ ]: non-standard residue; d: D form.
Legend:
[1] = tested on: Candida albicans; assay: Concentration that substantially inhibit growth of Candida albicans; assay type: functional, organism-based
[2] = tested on: Cryptococcus neoformans; assay: Concentration that substantially inhibit the growth of Cryptococcus neoformans; assay type: functional

SMILES: CC[C@H](C)[C@H](NC(=O)[C@@H](Cc1ccccc1)NC(=O)[C@@H](Cc1c[nH]c2ccccc12)NC(=O)[C@@H](N)CCCN=C(N)N)C(=O)N[C@H](Cc1ccccc1)C(=O)N[C@@H](Cc1c[nH]cn1)C(=O)N[C@@H](CCCCN)C(=O)N[C@@H](CCCCN)C(=O)NCC(N)=O [listing 1 of 2 here]
- IC50 [1]: 2.77 µM

SMILES: CC[C@H](C)[C@H](NC(=O)[C@@H](Cc1ccccc1)NC(=O)[C@@H](Cc1c[nH]c2ccccc12)NC(=O)[C@@H](N)CCCN=C(N)N)C(=O)N[C@H](Cc1ccccc1)C(=O)N[C@@H](Cc1c[nH]cn1)C(=O)N[C@@H](CCCCN)C(=O)N[C@@H](CCCCN)C(=O)NCC(N)=O [listing 2 of 2 here]
- MIC [2]: 2.51 µM (≈ 3.06 µg/mL)

SMILES: CC[C@H](C)[C@H](NC(=O)[C@H](CCCN=C(N)N)NC(=O)[C@H](CCCCN)NC(=O)[C@H](Cc1c[nH]cn1)NC(=O)[C@@H](Cc1ccccc1)NC(=O)[C@@H](NC(=O)[C@@H](Cc1ccccc1)NC(=O)[C@@H](Cc1c[nH]c2ccccc12)NC(=O)[C@@H](N)CCCN=C(N)N)[C@@H](C)CC)C(N)=O
- MIC [2]: 2.39 µM (≈ 3.11 µg/mL)
- IC50 [1]: 4.64 µM

SMILES: CC[C@H](C)[C@H](NC(=O)[C@@H](Cc1ccccc1)NC(=O)[C@@H](Cc1c[nH]c2ccccc12)NC(=O)[C@@H](N)CCCN=C(N)N)C(=O)N[C@H](Cc1ccccc1)C(=O)N[C@@H](Cc1c[nH]cn1)C(=O)N[C@@H](CCCCN)C(=O)N[C@@H](CCCCN)C(=O)N[C@@H](Cc1ccccc1)C(N)=O [listing 1 of 2 here]
- IC50 [1]: > 7 µM

SMILES: CC[C@H](C)[C@H](NC(=O)[C@@H](Cc1ccccc1)NC(=O)[C@@H](Cc1c[nH]c2ccccc12)NC(=O)[C@@H](N)CCCN=C(N)N)C(=O)N[C@H](Cc1ccccc1)C(=O)N[C@@H](Cc1c[nH]cn1)C(=O)N[C@@H](CCCCN)C(=O)N[C@@H](CCCCN)C(=O)N[C@@H](Cc1ccccc1)C(N)=O [listing 2 of 2 here]
- MIC [2]: > 7 µM

SMILES: CC[C@H](C)[C@H](NC(=O)[C@@H](Cc1ccccc1)NC(=O)[C@@H](Cc1c[nH]c2ccccc12)NC(=O)[C@@H](N)CCCN=C(N)N)C(=O)N[C@H](Cc1ccccc1)C(=O)N[C@@H](Cc1c[nH]cn1)C(=O)N[C@@H](CCCCN)C(=O)N[C@@H](CCCCN)C(=O)N[C@H](C(N)=O)C(C)C
- MIC [2]: 2.43 µM (≈ 3.06 µg/mL)
- IC50 [1]: 3.08 µM

SMILES: CC[C@H](C)[C@H](NC(=O)[C@@H](Cc1ccccc1)NC(=O)[C@@H](Cc1c[nH]c2ccccc12)NC(=O)[C@@H](N)CCCN=C(N)N)C(=O)N[C@H](Cc1ccccc1)C(=O)N[C@@H](Cc1c[nH]cn1)C(=O)N[C@@H](CCCCN)C(=O)N[C@@H](CCCN=C(N)N)C(=O)N[C@@H](Cc1ccc(O)cc1)C(N)=O
- MIC [2]: 4.62 µM (≈ 6.24 µg/mL)
- IC50 [1]: 7.08 µM

SMILES: CC[C@H](C)[C@H](NC(=O)[C@@H](Cc1ccccc1)NC(=O)[C@@H](Cc1c[nH]c2ccccc12)NC(=O)[C@@H](N)CCCN=C(N)N)C(=O)N[C@H](Cc1ccccc1)C(=O)N[C@@H](Cc1c[nH]cn1)C(=O)N[C@@H](CCCCN)C(=O)N[C@@H](CCCCN)C(=O)N[C@@H](CO)C(N)=O
- MIC [2]: 2.45 µM (≈ 3.06 µg/mL)
- IC50 [1]: 1.77 µM

SMILES: CC[C@H](C)[C@H](NC(=O)[C@@H](Cc1ccccc1)NC(=O)[C@@H](Cc1c[nH]c2ccccc12)NC(=O)[C@@H](N)CCCN=C(N)N)C(=O)N[C@H](Cc1ccccc1)C(=O)N[C@@H](Cc1c[nH]cn1)C(=O)N[C@@H](CCCCN)C(=O)N[C@@H](CCCCN)C(=O)N[C@@H](C)C(N)=O [listing 1 of 2 here]
- IC50 [1]: 3.17 µM

SMILES: CC[C@H](C)[C@H](NC(=O)[C@@H](Cc1ccccc1)NC(=O)[C@@H](Cc1c[nH]c2ccccc12)NC(=O)[C@@H](N)CCCN=C(N)N)C(=O)N[C@H](Cc1ccccc1)C(=O)N[C@@H](Cc1c[nH]cn1)C(=O)N[C@@H](CCCCN)C(=O)N[C@@H](CCCCN)C(=O)N[C@@H](C)C(N)=O [listing 2 of 2 here]
- MIC [2]: 2.48 µM (≈ 3.05 µg/mL)

SMILES: CC[C@H](C)[C@H](NC(=O)[C@@H](Cc1ccccc1)NC(=O)[C@@H](Cc1c[nH]c2ccccc12)NC(=O)[C@@H](N)CCCN=C(N)N)C(=O)N[C@H](Cc1ccccc1)C(=O)N[C@@H](Cc1c[nH]cn1)C(=O)N[C@@H](CCCCN)C(=O)N[C@@H](CCCCN)C(=O)N1CCC[C@H]1C(N)=O
- MIC [2]: 2.43 µM (≈ 3.06 µg/mL)
- IC50 [1]: 3.89 µM

SMILES: CC[C@H](C)[C@H](NC(=O)[C@@H](Cc1ccccc1)NC(=O)[C@@H](Cc1c[nH]c2ccccc12)NC(=O)[C@@H](N)CCCN=C(N)N)C(=O)N[C@H](Cc1ccccc1)C(=O)N[C@@H](Cc1c[nH]cn1)C(=O)N[C@@H](CCCCN)C(=O)N[C@@H](CCCCN)C(=O)N[C@@H](CCCN=C(N)N)C(N)=O
- MIC [2]: 2.32 µM (≈ 3.05 µg/mL)
- IC50 [1]: 1.64 µM

SMILES: CC[C@H](C)[C@H](NC(=O)[C@@H](Cc1ccccc1)NC(=O)[C@@H](Cc1c[nH]c2ccccc12)NC(=O)[C@@H](N)CCCN=C(N)N)C(=O)N[C@H](Cc1ccccc1)C(=O)N[C@@H](Cc1c[nH]cn1)C(=O)N[C@@H](CCCCN)C(=O)N[C@@H](CCCCN)C(=O)N[C@@H](CCC(=O)O)C(N)=O [listing 1 of 2 here]
- IC50 [1]: 3.57 µM

SMILES: CC[C@H](C)[C@H](NC(=O)[C@@H](Cc1ccccc1)NC(=O)[C@@H](Cc1c[nH]c2ccccc12)NC(=O)[C@@H](N)CCCN=C(N)N)C(=O)N[C@H](Cc1ccccc1)C(=O)N[C@@H](Cc1c[nH]cn1)C(=O)N[C@@H](CCCCN)C(=O)N[C@@H](CCCCN)C(=O)N[C@@H](CCC(=O)O)C(N)=O [listing 2 of 2 here]
- MIC [2]: 2.37 µM (≈ 3.06 µg/mL)

SMILES: CC[C@H](C)[C@H](NC(=O)[C@@H](Cc1ccccc1)NC(=O)[C@@H](Cc1c[nH]c2ccccc12)NC(=O)[C@@H](N)CCCN=C(N)N)C(=O)N[C@H](Cc1ccccc1)C(=O)N[C@@H](Cc1c[nH]cn1)C(=O)N[C@@H](CCCCN)C(=O)N[C@@H](CCCN=C(N)N)C(=O)N[C@@H](CCCN=C(N)N)C(N)=O
- MIC [2]: 4.64 µM (≈ 6.24 µg/mL)
- IC50 [1]: 4.15 µM

SMILES: CC[C@H](C)[C@H](NC(=O)[C@@H](Cc1ccccc1)NC(=O)[C@@H](Cc1c[nH]c2ccccc12)NC(=O)[C@@H](N)CCCN=C(N)N)C(=O)N[C@H](Cc1ccccc1)C(=O)N[C@@H](Cc1c[nH]cn1)C(=O)N[C@@H](CCCCN)C(=O)N[C@@H](CCCN=C(N)N)C(=O)N[C@@H](CCC(=O)O)C(N)=O
- MIC [2]: 4.74 µM (≈ 6.25 µg/mL)
- IC50 [1]: 4.23 µM

SMILES: CC[C@H](C)[C@H](NC(=O)[C@@H](Cc1ccccc1)NC(=O)[C@@H](Cc1c[nH]c2ccccc12)NC(=O)[C@@H](N)CCCN=C(N)N)C(=O)N[C@H](Cc1ccccc1)C(=O)N[C@@H](Cc1c[nH]cn1)C(=O)N[C@@H](CCCCN)C(=O)N[C@@H](CCCCN)C(=O)N[C@@H](CC(N)=O)C(N)=O
- MIC [2]: 2.4 µM (≈ 3.06 µg/mL)
- IC50 [1]: 3.35 µM

SMILES: CC[C@H](C)[C@H](NC(=O)[C@H](CCCCN)NC(=O)[C@H](CCCCN)NC(=O)[C@H](Cc1c[nH]cn1)NC(=O)[C@@H](Cc1ccccc1)NC(=O)[C@@H](NC(=O)[C@@H](Cc1ccccc1)NC(=O)[C@@H](Cc1c[nH]c2ccccc12)NC(=O)[C@@H](N)CCCN=C(N)N)[C@@H](C)CC)C(N)=O
- MIC [2]: 2.4 µM (≈ 3.06 µg/mL)
- IC50 [1]: 1.65 µM

SMILES: CC[C@H](C)[C@H](NC(=O)[C@@H](Cc1ccccc1)NC(=O)[C@@H](Cc1c[nH]c2ccccc12)NC(=O)[C@@H](N)CCCN=C(N)N)C(=O)N[C@H](Cc1ccccc1)C(=O)N[C@@H](Cc1c[nH]cn1)C(=O)N[C@@H](CCCCN)C(=O)N[C@@H](CCCN=C(N)N)C(=O)N[C@@H](Cc1c[nH]cn1)C(N)=O
- MIC [2]: 2.35 µM (≈ 3.12 µg/mL)
- IC50 [1]: 4.11 µM

SMILES: CC[C@H](C)[C@H](NC(=O)[C@@H](Cc1ccccc1)NC(=O)[C@@H](Cc1c[nH]c2ccccc12)NC(=O)[C@@H](N)CCCN=C(N)N)C(=O)N[C@H](Cc1ccccc1)C(=O)N[C@@H](Cc1c[nH]cn1)C(=O)N[C@@H](CCCCN)C(=O)N[C@@H](CCCN=C(N)N)C(=O)NCC(N)=O
- MIC [2]: 2.5 µM (≈ 3.11 µg/mL)
- IC50 [1]: 4.48 µM

SMILES: CC[C@H](C)[C@H](NC(=O)[C@@H](Cc1ccccc1)NC(=O)[C@@H](Cc1c[nH]c2ccccc12)NC(=O)[C@@H](N)CCCN=C(N)N)C(=O)N[C@H](Cc1ccccc1)C(=O)N[C@@H](Cc1c[nH]cn1)C(=O)N[C@@H](CCCCN)C(=O)N[C@@H](CCCN=C(N)N)C(=O)N[C@@H](CC(=O)O)C(N)=O
- MIC [2]: 4.79 µM (≈ 6.24 µg/mL)
- IC50 [1]: 7.71 µM

SMILES: CC[C@H](C)[C@H](NC(=O)[C@@H](Cc1ccccc1)NC(=O)[C@@H](Cc1c[nH]c2ccccc12)NC(=O)[C@@H](N)CCCN=C(N)N)C(=O)N[C@H](Cc1ccccc1)C(=O)N[C@@H](Cc1c[nH]cn1)C(=O)N[C@@H](CCCCN)C(=O)N[C@@H](CCCCN)C(=O)N[C@@H](CC(=O)O)C(N)=O [listing 1 of 2 here]
- IC50 [1]: 3.52 µM

SMILES: CC[C@H](C)[C@H](NC(=O)[C@@H](Cc1ccccc1)NC(=O)[C@@H](Cc1c[nH]c2ccccc12)NC(=O)[C@@H](N)CCCN=C(N)N)C(=O)N[C@H](Cc1ccccc1)C(=O)N[C@@H](Cc1c[nH]cn1)C(=O)N[C@@H](CCCCN)C(=O)N[C@@H](CCCCN)C(=O)N[C@@H](CC(=O)O)C(N)=O [listing 2 of 2 here]
- MIC [2]: 4.8 µM (≈ 6.12 µg/mL)

SMILES: CC[C@H](C)[C@H](NC(=O)[C@@H](Cc1ccccc1)NC(=O)[C@@H](Cc1c[nH]c2ccccc12)NC(=O)[C@@H](N)CCCN=C(N)N)C(=O)N[C@H](Cc1ccccc1)C(=O)N[C@@H](Cc1c[nH]cn1)C(=O)N[C@@H](CCCCN)C(=O)N[C@@H](CCCN=C(N)N)C(=O)N[C@H](C(N)=O)C(C)C
- MIC [2]: 4.85 µM (≈ 6.24 µg/mL)
- IC50 [1]: 4.88 µM

SMILES: CC[C@H](C)[C@H](NC(=O)[C@@H](Cc1ccccc1)NC(=O)[C@@H](Cc1c[nH]c2ccccc12)NC(=O)[C@@H](N)CCCN=C(N)N)C(=O)N[C@H](Cc1ccccc1)C(=O)N[C@@H](Cc1c[nH]cn1)C(=O)N[C@@H](CCCCN)C(=O)N[C@@H](CCCN=C(N)N)C(=O)N[C@@H](CCSC)C(N)=O
- MIC [2]: 2.36 µM (≈ 3.11 µg/mL)
- IC50 [1]: 4.62 µM

SMILES: CC[C@H](C)[C@H](NC(=O)[C@@H](Cc1ccccc1)NC(=O)[C@@H](Cc1c[nH]c2ccccc12)NC(=O)[C@@H](N)CCCN=C(N)N)C(=O)N[C@H](Cc1ccccc1)C(=O)N[C@@H](Cc1c[nH]cn1)C(=O)N[C@@H](CCCCN)C(=O)N[C@@H](CCCCN)C(=O)N[C@@H](Cc1c[nH]cn1)C(N)=O [listing 1 of 2 here]
- IC50 [1]: 1.9 µM

SMILES: CC[C@H](C)[C@H](NC(=O)[C@@H](Cc1ccccc1)NC(=O)[C@@H](Cc1c[nH]c2ccccc12)NC(=O)[C@@H](N)CCCN=C(N)N)C(=O)N[C@H](Cc1ccccc1)C(=O)N[C@@H](Cc1c[nH]cn1)C(=O)N[C@@H](CCCCN)C(=O)N[C@@H](CCCCN)C(=O)N[C@@H](Cc1c[nH]cn1)C(N)=O [listing 2 of 2 here]
- MIC [2]: 2.36 µM (≈ 3.06 µg/mL)

SMILES: NCCCC[C@H](NC(=O)[C@@H](Cc1ccccc1)NC(=O)[C@H](Cc1ccccc1)NC(=O)[C@@H](Cc1ccccc1)NC(=O)[C@@H](Cc1c[nH]c2ccccc12)NC(=O)[C@@H](N)Cc1c[nH]cn1)C(N)=O (H-H[dW][dF]F[dF]K-NH2)
- MIC [2]: 6.81 µM (≈ 6.2 µg/mL)

SMILES: CC[C@H](C)[C@H](NC(=O)[C@@H](Cc1ccccc1)NC(=O)[C@@H](Cc1c[nH]c2ccccc12)NC(=O)[C@@H](N)CCCN=C(N)N)C(=O)N[C@H](Cc1ccccc1)C(=O)N[C@@H](Cc1c[nH]cn1)C(N)=O (H-R[dW][dF]I[dF]H-NH2)
- MIC [2]: 6.86 µM (≈ 6.2 µg/mL)

From ChEMBL document CHEMBL1135126, “Identification of novel antifungal nonapeptides through the screening of combinatorial peptide libraries based on a hexapeptide motif” (Bioorg Med Chem Lett, 2002)
